According to patent US20240181087A1, “COMPOSITION FOR CONTRAST IMAGING OF CANCER” (ASTELLAS PHARMA INC., priority 2021, published 2024):

Tested on: mouse tumor cell 4T1
Assay: near-infrared fluorescence imaging after administration into tumor, 4T1 breast cancer model
Assay type: in vivo
Details: 4T1 tumor, 1 mg/mL saline, fluorescence imaging, incl. during tumor excision operation
Source text: A syngeneic tumor transplanted mouse model was created as follows referring to “Gan-Shikkan Model no Sakusei to Riyo (Cancer-Creation and Use of Disease Model)” (Takuro Nakamura, LIC, 2012). • (Breast Cancer) A tumor model was created by breeding a normal Balb/c mouse (weight: about 20 g to 30 g) for 14 days with mouse tumor cell 4T1 subcutaneously administered thereto. • (Colorectal Cancer) A tumor model was created by breeding a normal Balb/c mouse (weight: about 20 g to 30 g) for 14 days with CT26 (colorectal cancer cell) subcutaneously administered thereto. • (Skin Cancer) A tumor model was created by breeding a C57BL/6 mouse (weight: about 15 g to 20 g) for 14 days with B16F1 (skin cancer cell) subcutaneously administered thereto.
Subsequently, to the tumor of each of the model mice, 0.02 to 0.05 mL of a saline containing the compound III or ICG (concentration of the compound III or ICG: 1 mg/mL) was administered, and fluorescence imaging was performed transdermally with a near-infrared fluorescence camera (Fluobeam, manufactured by Fluoptics, http://www.solve-net.com/info/wp-content/uploads/downloads/2013/12/Fluobeam.pdf) (excitation wavelength: 780 nm, detection wavelength: 800 nm or more).

CC1(C)C(/C=C/C=C/C=C/C=C2\N(CCCCS(=O)(=O)O)c3ccc4ccccc4c3C2(C)C)=[N+](CCCCS(=O)(=O)[O-])c2ccc3ccccc3c21 [ICG, indocyanine green, reference compound]
drawing of tumor outline / exudation to surrounding tissues: fluorescence signals were emitted outside the tumor tissue, and the outline of the tumor could not be drawn
